The source made the active and inactive calls. The calls are words filed in the database; no cut-off is given here.
Tests used:
[1] = molecular target: 5-hydroxytryptamine receptor 2A (Homo sapiens) (UniProt P28223); assay: Antagonist activity at 5-HT2AR (unknown origin) in human PSYLI2 cells assessed as decrease in fluorescence at 10 uM pretreated with 5-HT for 10 mins followed by compound addition and measured after 5 mins by PsychLight2 assay; type: functional, cell-based; settings: PSYLI2 cell, filed as antagonist
[2] = molecular target: 5-hydroxytryptamine receptor 2A (Homo sapiens) (UniProt P28223); assay: Agonist activity at 5-HT2AR (unknown origin) in human PSYLI2 cells assessed as increase in biosensor activation at 10 uM incubated for 5 mins by PsychLight2 assay; type: functional, cell-based; settings: PSYLI2 cell
[3] = molecular target: Dual specificity tyrosine-phosphorylation-regulated kinase 1A (Homo sapiens, UniProt Q13627)
[4] = test system: Cortical neurone; assay: Psychoplastogenic effect in Sprague-Dawley rat cortical neuron assessed as increase in dendritic spine density at 10 uM incubated for 24 hrs by spinogenesis based confocal microscopic analysis; type: functional, cell-based
[5] = molecular target: Microtubule-associated protein tau (Rattus norvegicus) (UniProt P19332); assay: Inhibition of okadaic acid-induced Tau hyperphosphorylation Ser202/Thr205 residues in Sprague-Dawley rat cortical neuron at 1 to 50 uM preincubated with compound for 24 hrs followed by okadaic acid addition and measured after 1 hrs by fluorescence based immunohistochemistry analysis; type: cell-based; settings: dose 1-50 µM
[6] = test system: Cortical neurone; assay: Induction of neurite outgrowth in Wistar rat Primary cortical neurons assessed as increase in neurite length incubated for 72 hrs by imaging analysis; type: functional, cell-based; settings: dose 0.3-10 µM
[7] = test system: Cortical neurone; assay: Induction of neurite outgrowth in Wistar rat Primary cortical neurons assessed as increase in neurite branching incubated for 72 hrs by imaging analysis; type: functional, cell-based; settings: dose 0.3-10 µM
[8] = Toxicity in C57BL/6J mouse assessed as induction of head-twitch response upto 30 mg/kg, ip measured for 10 mins; type: organism-based; settings: in vivo
[9] = molecular target: Microtubule-associated protein tau (Rattus norvegicus) (UniProt P19332); assay: Inhibition of okadaic acid-induced Tau hyperphosphorylation Ser202/Thr205 residues in Sprague-Dawley rat cortical neuron at 50 uM preincubated with compound for 24 hrs followed by okadaic acid addition and measured after 1 hrs by fluorescence based immunohistochemistry analysis; type: cell-based
[10] = Toxicity in C57BL/6J mouse assessed as effect on locomotion upto 30 mg/kg, ip measured for 10 mins; type: organism-based; settings: in vivo
[11] = test system: Mus musculus; assay: Antipsychotic activity in C57BL/6J mouse assessed as reduction in 5-MeO-DMT-induced head-twitch response at 30 mg/kg, ip pretreated with compound for 10 mins followed by 5-MeO-DMT addition and measured after 20 mins; type: functional, organism-based; settings: time 30.0 min
[12] = molecular target: Phosphatidylinositol 4,5-bisphosphate 3-kinase catalytic subunit gamma isoform (Homo sapiens) (UniProt P48736); assay: Inhibition of PIK3CG (unknown origin) at 10 uM by DiscoverX KINOMEscan assay
[13] = molecular target: Cyclin-dependent kinase 7 (Homo sapiens) (UniProt P50613); assay: Inhibition of CDK7 (unknown origin) at 10 uM by DiscoverX KINOMEscan assay
[14] = species on record: Homo sapiens; assay: Inhibition of CAMK (unknown origin) at 10 uM by DiscoverX KINOMEscan assay
[15] = molecular target: Casein kinase I (Homo sapiens) (UniProt Q9HCP0+P78368+P48730+P49674+P48729); assay: Inhibition of CK1 (unknown origin) at 10 uM by DiscoverX KINOMEscan assay; type: protein assay

Microtubule-associated protein tau (Rattus norvegicus), sequence (P19332 whole entry): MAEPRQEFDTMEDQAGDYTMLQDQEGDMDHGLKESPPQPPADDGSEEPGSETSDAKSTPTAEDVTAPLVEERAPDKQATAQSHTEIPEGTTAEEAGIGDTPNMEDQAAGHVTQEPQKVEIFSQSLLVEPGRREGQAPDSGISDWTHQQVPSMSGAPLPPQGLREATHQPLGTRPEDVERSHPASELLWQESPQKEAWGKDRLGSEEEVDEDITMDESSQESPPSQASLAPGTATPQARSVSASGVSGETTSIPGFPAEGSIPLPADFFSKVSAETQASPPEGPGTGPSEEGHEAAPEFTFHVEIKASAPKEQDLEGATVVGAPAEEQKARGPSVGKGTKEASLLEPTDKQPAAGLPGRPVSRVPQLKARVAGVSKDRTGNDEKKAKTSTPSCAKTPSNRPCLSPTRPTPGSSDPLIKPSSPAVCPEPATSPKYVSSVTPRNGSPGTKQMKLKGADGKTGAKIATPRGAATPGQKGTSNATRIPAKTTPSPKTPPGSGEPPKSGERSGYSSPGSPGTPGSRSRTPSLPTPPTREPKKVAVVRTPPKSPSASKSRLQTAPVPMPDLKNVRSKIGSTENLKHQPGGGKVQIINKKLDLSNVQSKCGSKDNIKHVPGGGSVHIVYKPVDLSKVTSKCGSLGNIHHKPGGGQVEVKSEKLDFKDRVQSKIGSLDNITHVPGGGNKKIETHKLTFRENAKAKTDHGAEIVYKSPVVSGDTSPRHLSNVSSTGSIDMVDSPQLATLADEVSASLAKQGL
5-hydroxytryptamine receptor 2A (Homo sapiens), sequence (P28223 whole entry): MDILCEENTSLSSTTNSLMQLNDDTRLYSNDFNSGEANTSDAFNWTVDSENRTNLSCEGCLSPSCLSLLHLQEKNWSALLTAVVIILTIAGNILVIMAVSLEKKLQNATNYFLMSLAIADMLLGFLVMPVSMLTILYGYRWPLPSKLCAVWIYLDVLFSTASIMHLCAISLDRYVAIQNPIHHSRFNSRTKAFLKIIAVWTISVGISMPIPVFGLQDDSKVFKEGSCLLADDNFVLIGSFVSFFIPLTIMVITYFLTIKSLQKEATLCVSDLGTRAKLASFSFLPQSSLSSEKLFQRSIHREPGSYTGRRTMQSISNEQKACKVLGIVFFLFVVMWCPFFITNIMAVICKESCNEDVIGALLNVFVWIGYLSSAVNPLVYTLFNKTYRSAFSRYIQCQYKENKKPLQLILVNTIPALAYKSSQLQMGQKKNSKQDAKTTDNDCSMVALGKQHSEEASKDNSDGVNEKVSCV
Cyclin-dependent kinase 7 (Homo sapiens), sequence (P50613 whole entry): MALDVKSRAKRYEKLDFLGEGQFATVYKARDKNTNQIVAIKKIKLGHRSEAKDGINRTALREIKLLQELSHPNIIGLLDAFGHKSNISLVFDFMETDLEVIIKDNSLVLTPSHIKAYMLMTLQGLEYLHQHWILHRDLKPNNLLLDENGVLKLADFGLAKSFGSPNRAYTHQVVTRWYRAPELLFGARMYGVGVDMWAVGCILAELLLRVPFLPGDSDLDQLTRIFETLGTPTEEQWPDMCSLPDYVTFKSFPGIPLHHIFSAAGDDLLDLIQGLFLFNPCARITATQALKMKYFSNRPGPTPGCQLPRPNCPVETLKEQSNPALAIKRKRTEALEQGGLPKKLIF
Phosphatidylinositol 4,5-bisphosphate 3-kinase catalytic subunit gamma isoform (Homo sapiens), sequence (P48736 whole entry, looked up, canonical isoform): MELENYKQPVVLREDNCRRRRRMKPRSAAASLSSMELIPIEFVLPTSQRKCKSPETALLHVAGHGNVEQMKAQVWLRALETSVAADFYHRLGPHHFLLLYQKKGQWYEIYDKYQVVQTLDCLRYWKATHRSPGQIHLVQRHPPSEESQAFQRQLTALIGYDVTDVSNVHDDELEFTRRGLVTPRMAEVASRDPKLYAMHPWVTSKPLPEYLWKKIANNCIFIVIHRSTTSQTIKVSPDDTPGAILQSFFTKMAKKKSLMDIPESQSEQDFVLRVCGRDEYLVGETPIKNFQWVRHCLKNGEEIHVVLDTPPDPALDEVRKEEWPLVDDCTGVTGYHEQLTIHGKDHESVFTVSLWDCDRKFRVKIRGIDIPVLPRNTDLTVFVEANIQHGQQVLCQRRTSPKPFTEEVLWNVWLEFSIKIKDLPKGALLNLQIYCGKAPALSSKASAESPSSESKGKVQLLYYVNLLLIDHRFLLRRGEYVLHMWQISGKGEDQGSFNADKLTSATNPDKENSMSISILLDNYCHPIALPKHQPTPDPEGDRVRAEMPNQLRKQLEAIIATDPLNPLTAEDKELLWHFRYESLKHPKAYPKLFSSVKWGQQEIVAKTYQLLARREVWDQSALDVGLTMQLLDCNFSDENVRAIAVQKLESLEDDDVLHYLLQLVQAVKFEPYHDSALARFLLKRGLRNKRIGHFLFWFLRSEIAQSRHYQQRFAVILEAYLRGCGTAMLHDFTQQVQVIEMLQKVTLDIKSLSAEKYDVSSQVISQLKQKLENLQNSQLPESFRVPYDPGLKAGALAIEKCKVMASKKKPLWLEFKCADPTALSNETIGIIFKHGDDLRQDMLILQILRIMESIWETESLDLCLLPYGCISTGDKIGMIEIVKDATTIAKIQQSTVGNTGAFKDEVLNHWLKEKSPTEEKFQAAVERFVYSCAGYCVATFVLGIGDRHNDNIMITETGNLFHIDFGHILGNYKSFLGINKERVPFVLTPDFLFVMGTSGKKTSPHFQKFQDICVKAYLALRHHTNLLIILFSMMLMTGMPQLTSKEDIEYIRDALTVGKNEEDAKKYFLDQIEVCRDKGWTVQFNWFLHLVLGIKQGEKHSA

For `COc1ccc2c(c1)c1ccnc(C)c1n2CCN(C)C`, the Activity [1] was “Active”, the Activity [2] was “inactive” and the IC50 [3] was > 10 µM.
For `CN(C)CCc1c[nH]c2ccccc12`, the Activity [4] was “Active” and the inhibition [5] was “inactive”.
With `CC(=O)/C=C1\Sc2ccccc2N1CCN(C)C` the Activity [1] was “Active” and the Activity [2] was “inactive”.
For `COc1ccc2c(c1)N(CCN(C)C)/C(=C/C(C)=O)S2`, the IC50 [3] was 0.561 µM, the Activity [6] was “Dose-Dependent Effect” and the inhibition [5] was “inactive”. For the same compound, the Activity [7] was “Dose-Dependent Effect”.
With `COc1ccc2c3ccnc(C)c3n(CCN(C)C)c2c1.O=C(O)/C=C/C(=O)O` the Activity [4] was “Active”, the IC50 [3] was 0.209 µM and the Activity [8] was “Non-Toxic”. The Activity [6] was “Dose-Dependent Effect”, the inhibition [9] was “Active” and the Activity [10] was “Non-Toxic”. The Activity [7] was “Dose-Dependent Effect” and the Activity [11] was “Active”.
For `COc1ccc2c(c1)S/C(=C\C(C)=O)N2CCN(C)C`, the Activity [1] was “Active” and the Activity [2] was “inactive”.
With `COc1ccc2c(c1)[nH]c1c(C)nccc12` the Activity [4] was “inactive”, the inhibition [5] was “Active” and the inhibition [12] was “Active”. The inhibition [13] was “Active”, the inhibition [14] was “Active” and the inhibition [15] was “Active”.
In the case of `Cc1nccc2c3ccccc3n(CCN(C)C)c12`, the Activity [1] is reported as “Active”, the Activity [2] is reported as “inactive” and the IC50 [3] is reported as > 10 µM.
With `NCCc1c[nH]c2ccc(O)cc12` the Activity ([2]; filed as agonist) was “Active”.

Reference: ChEMBL document CHEMBL5543160, “Psychoplastogenic DYRK1A Inhibitors with Therapeutic Effects Relevant to Alzheimer's Disease” (J Med Chem, 2024)
